Test results from US11717578B2, “Undecylenic acid-based nanocarriers for targeted drug delivery” (University of Cincinnati, priority 2017, dated 2023).

Test system: Reactive Oxygen Species (ROS)
Assay: DPBF assay of photodynamic and sonodynamic ROS generation
Conditions: complexed with mPEG-UA nanocarrier vesicles
Source text: Photodynamic Reactive Oxygen Species (ROS) were generated by irradiation of red/green/blue (RGB) LEDs at 8 mW/cm^2 and detected by the 1,3-diphenylisobenzofuran (DPBF) assay. A photoreactive iron complex (Fe3[diCl-Sal-AHA]3OCH3 Na) from the Baldwin Lab (UC Chemistry) was employed as the photosensitizer and complexed with the mPEG-UA nanocarrier vesicles.

## Fe3[diCl-Sal-AHA]3OCH3 Na
RGB LEDs at 8 mW/cm^2
  photodynamic ROS generation: photodynamic ROS are generated

## sodium copper chlorophyllin
Sonication at 1.0 MHz, 3 W/cm^2
  sonodynamic ROS generation: Sonodynamic ROS were generated
